Experiments:
patients with ME/CFS = assay: clinical trial in ME/CFS, three dosage levels; type: in vivo, human
[1] = system: patient diagnosed with Fibromyalgia; assay: Fibromyalgia patient fatigue case; type: in vivo, human
Description: A patient diagnosed with Fibromyalgia had significant fatigue. […] They increased their dosage to 6 capsules per day and has seen more than a 50% improvement in their fatigue.

pneumonia patient = assay: fatigue after pneumonia, patient testimonial; type: in vivo, human; settings: 500 mg daily
Description: The Inventor has supplied Anhydrous Enol-Oxaloacetate for fatigue after pneumonia. Pneumonia patients often suffer from physiological fatigue. In a retrospective study of 506 adults with clinical and radiographic evidence of pneumonia, […] of the patients suffered from fatigue at 90 days after diagnosis. (Metlay J P, Fine M J, Schulz R, Marrie T J, Coley C M, Kapoor W N, et al. Measuring symptomatic and functional recovery in patients with community-acquired pneumonia. J Gen Intern Med. 1997; 12(7):423-30). […] The place where oxaloacetate made the most significant difference for me was in alleviation of the crushing fatigue that accompanied the pneumonia. […] On querying nurses and physical therapists about this response, the universal answer was that it was “typical.” Speaking with people who had had pneumonia at different ages—granted that this is anecdotal—garnered consistent stories of extreme fatigue and a slow recovery that took years to achieve prior energy levels even with people who had been physically active teenagers at the time. • I was in the hospital for 2 weeks and then in skilled care for about 6 weeks, putting me in the 40% of the population that don't manage to avoid hospitalization. […]

LD50 toxicity = settings: in vivo
Description: The dose ratio between toxic and therapeutic effects is the therapeutic index and it can be expressed as the ratio LD50/ED50. […] The “no observable adverse effects level” (NOAEL) in a 90-day sub-chronic rat study was 500 mg/kg (the highest dose in the test).

cancer patients = assay: cancer patient fatigue case reports (Examples 13-17); type: in vivo, human
Description: A cancer patient with recurrent stage 4 glioblastoma multiforme encountered significant fatigue as part of the ongoing disease.
A cancer patient with Stage 2 primary prostate cancer experienced significant fatigue. […] The patient has been able to eliminate pathological fatigue for 4 years now and is continuing the dosage.
A cancer patient with stage 4 primary hepatocellular carcinoma experienced significant fatigue, and due to cancer progression, was placed in hospice.
A cancer patient with stage 4 breast cancer experienced pathological fatigue.
A cancer patient with stage 3 colon cancer experienced pathological fatigue. […] The patient continued to be fatigue-free and went into cancer remission, which was also fatigue free.

cancer cells = settings: glioblastoma; cited from earlier work
Mouse Soleus Muscle = settings: normal cells, fatigue stimulated by electrical current applied to the muscle; cited from earlier work
ALS patient = ALS patient on long-term supplementation; type: in vivo, human; settings: 3,000 mg daily, after 8 months
Description: For ALS, this is surprising and welcome news as the anticipated decline rate for this period of time ranges from 12% to 43% as measured by the ALS FRS. (Ong M L, Tan P F, Holbrook J D. Predicting functional decline and survival in amyotrophic lateral sclerosis. PLoS One. 2017; 12(4):e0174925. Published 2017 Apr. 13. doi:10.1371/journal.pone.0174925).
The patient's email: • “Dear Alan, Good afternoon. […] We are thrilled! Could we please have some more medicine? Thanks!”

[2] = system: mitochondrial production and density; settings: cited from earlier work
Parkinson's patients = assay: double blinded placebo-controlled trial in Parkinson's patients, MDS-UPDRS fatigue question 1.13; type: in vivo, human; settings: 2 capsules benaGene (100 mg oxaloacetate/150 mg ascorbic acid) per day, 4 months, P value<0.05, 13 patients
Description: As used herein, the term “MDS-UPDRS” refers to the “Movement Disorder Society-Sponsored Revision of the United Parkinson's Disease Rating Scale” (Goetz et al, Movement Disorder Society-Sponsored Revision of the United Parkinson's Disease Rating Scale (MDS-UPDRS): Scale Presentation and Clinimetric Testing Results, Movement Disorders Vol. 23, No. 15, 2008, pp. 2129-2170).
Based on the findings of the Inventor, a clinical trial was performed on Parkinson's Disease patients. The trial used the MDS-UPDRS (Goetz et al, Movement Disorder Society-Sponsored Revision of the United Parkinson's Disease Rating Scale (MDS-UPDRS): Scale Presentation and Clinimetric Testing Results, Movement Disorders Vol. 23, No. 15, 2008, pp. 2129-2170) (45) as a validated method to clinically measure pathological fatigue in Parkinson's patients. The Fatigue question is as follows: • 1.13 Fatigue • Over the past week, have you usually felt fatigued? This feeling is not part of being sleepy or sad • 0: Normal: No fatigue • 1: Slight: Fatigue occurs.

[3] = system: post-COVID-19 fatigue patient; assay: post-COVID-19 fatigue case, physician (Example 3); settings: 500 mg BID
glucose uptake = settings: diabetic patients and Alzheimer's patients; cited from earlier work
[4] = system: patients with post-COVID-19 fatigue; assay: clinical trial in Long Haul post-COVID-19 fatigue; settings: oral 500 mg BID, 6 weeks
Description: Fatigue is assessed by the Chalder Fatigue Scale, the Fatigue Severity Scale, and PROMIS-Fatigue-Short Form 7a. Scores are summarized as means and standard deviations and confidence intervals will be calculated. Changes are also summarized as effect sizes. […] All patients provided written informed consent to participate in the study prior to being screened.
18 patients who suffered from “Long Haul” post-COVID-19 fatigue for an average of 6 months were recruited to a clinical trial.

[5] = system: patient with Alzheimer's disease; assay: Alzheimer's disease patient fatigue case; type: in vivo, human; settings: caregiver testimonial
Description: A patient with Alzheimer's disease experienced significant muscle and mental fatigue. […] The testimonial is shown below.

## O=C(O)CC(=O)C(=O)O [oxaloacetate, 2-oxobutanedioic Acid]
Patients with ME/CFS; 500 mg BID, 2 weeks, N=22
  reduction from baseline fatigue, Chalder Fatigue Scale: 15.3%
Patients with ME/CFS; 500 mg BID, 6-weeks, N=22
  reduction in fatigue, Chalder Fatigue Scale: 21.9%
Patients with ME/CFS; 1,000 mg BID, 6-weeks, N=25
  reduction in fatigue, Chalder Fatigue Scale: 30.2%
Patients with ME/CFS; 1,000 mg TID, 2 weeks, N=22
  reduction in fatigue, Chalder Fatigue Scale: 17.5%
Patients with ME/CFS; 69 patients, all dosage levels
  severe Adverse Effects recorded in the study: no severe Adverse Effects
Patients with ME/CFS; historical placebo effect 5.9%
  patients in the study improved over historical placebo: 76.8%
Patients with ME/CFS; of 69, resolved by moving dosing to breakfast and lunch
  patients who experienced insomnia: 1 patient
Patients with ME/CFS; of 69, resolved by taking with food
  patients who experienced dyspepsia: 4 patients
[1]; 2 capsules of 100 mg per day
  fatigue: improvement
[1]; 6 capsules of 100 mg per day
  improvement in fatigue: > 50%
Pneumonia patient
  fatigue after Pneumonia: rapid resolution of fatigue
LD50 toxicity
  LD50: above 5 g/kg of body weight
Cancer patients; Stage 2 primary prostate cancer, 1,000 mg daily, 4 years
  pathological fatigue: ameliorated
Cancer patients; glioblastoma patient, 6,000 mg daily for one year
  adverse events: without any significant adverse events
Cancer patients; hepatocellular carcinoma patient, 3,000 mg per day for 10 months
  side effects: without side effects
Cancer patients; prostate cancer patient, 1,000 mg daily
  side effects: No side effects
Cancer patients; recurrent stage 4 glioblastoma multiforme, 6,000 mg daily
  fatigue associated with the cancer: ameliorated
Cancer patients; stage 3 colon cancer, 1,000 mg per day (500 mg BID)
  fatigue: significant reduction in fatigue
Cancer patients; stage 4 breast cancer, 1,000 mg per day, after 3 days
  fatigue: significant reduction in fatigue
Cancer patients; stage 4 primary hepatocellular carcinoma, 3,000 mg per day
  fatigue: significant reduction in fatigue
Cancer cells
  glycolysis and formation of lactate: reducing both glycolysis and the formation of lactate
Mouse Soleus Muscle
  muscle endurance and muscle fatigue: increase muscle endurance and reduce muscle fatigue
ALS patient
  function, fatigue/muscle function: no decline in function
[2]
  mitochondrial production and density: increased mitochondrial production and density
Parkinson's patients
  improvement of MDS-UPDRS fatigue score over baseline: 28.7%
[3]
  side effect reported by the patient: nausea
Glucose uptake
  glucose uptake: increase glucose uptake
[4]
  adverse events during the trial: no significant adverse events
[4]; 18 patients, P<0.005
  reduction in fatigue compared to baseline, PROMIS Fatigue Short Form 7a: 21%
  reduction in fatigue from baseline, Fatigue Severity Scale: 15%
  reduction of fatigue from baseline, Chalder Fatigue Scale: 45%
[4]; 18 patients, P<0.05
  reduction, Visual Analogue Fatigue Scale: 56%
[5]
  mental and physical pathological fatigue: significantly reduces mental and physical pathological fatigue

Reference: patent US20240075000A1 (priority 2021, published 2024)
